Assays:
Assay in all cases: relative viability (nuclei count vs DMSO), 5 days (fraction); higher = more cells survive
Ibrutinib + Luminespib = compound: C=CC(=O)N1CCC[C@@H](n2nc(-c3ccc(Oc4ccccc4)cc3)c3c(N)ncnc32)C1 [Ibrutinib] + CCNC(=O)c1noc(-c2cc(C(C)C)c(O)cc2O)c1-c1ccc(CN2CCOCC2)cc1 [Luminespib] (partner 0.01 µM)
How it was run: (§1)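 For relative viability, nuclei counts in treated wells were divided by those in vehicle wells. Lung cancer cell lines had been pin-tool dosed in 1536-well plates the day after seeding and cultured for 5 days, then fixed and stained in one step (final 0.05% Triton X-100, 1% formaldehyde, 1 ug/ml Hoechst) and imaged at 4×. Doses were one drug alone or a fixed anchor-drug dose plus five library-drug doses (not always all listed) in √10 steps, and values are duplicate-plate medians.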

Ibrutinib + Bortezomib = compound: C=CC(=O)N1CCC[C@@H](n2nc(-c3ccc(Oc4ccccc4)cc3)c3c(N)ncnc32)C1 [Ibrutinib] + CC(C)C[C@H](NC(=O)[C@H](Cc1ccccc1)NC(=O)c1cnccn1)B(O)O [Bortezomib] (partner 0.002 µM)
How it was run: as §1

PAC-1 + Phenformin = compound: C=CCc1cccc(/C=N/NC(=O)CN2CCN(Cc3ccccc3)CC2)c1O [PAC-1] + N=C(N)NC(=N)NCCc1ccccc1 [Phenformin] (partner 250 µM)
How it was run: as §1

PAC-1 + Trametinib = compound: C=CCc1cccc(/C=N/NC(=O)CN2CCN(Cc3ccccc3)CC2)c1O [PAC-1] + CC(=O)Nc1cccc(-n2c(=O)n(C3CC3)c(=O)c3c(Nc4ccc(I)cc4F)n(C)c(=O)c(C)c32)c1 [Trametinib] (partner 0.02 µM)
How it was run: as §1

Cell Line | relative viability (Ibrutinib + Luminespib; first compound 0.005 µM) | relative viability (Ibrutinib + Luminespib; first compound 0.01581 µM) | relative viability (Ibrutinib + Luminespib; first compound 0.05 µM) | relative viability (Ibrutinib + Luminespib; first compound 0.1581 µM) | relative viability (Ibrutinib + Luminespib; first compound 0.5 µM) | relative viability (Ibrutinib + Bortezomib; first compound 0.005 µM) | relative viability (Ibrutinib + Bortezomib; first compound 0.01581 µM) | relative viability (Ibrutinib + Bortezomib; first compound 0.05 µM) | relative viability (Ibrutinib + Bortezomib; first compound 0.1581 µM) | relative viability (Ibrutinib + Bortezomib; first compound 0.5 µM) | relative viability (PAC-1 + Phenformin; first compound 0.02 µM) | relative viability (PAC-1 + Phenformin; first compound 0.06325 µM) | relative viability (PAC-1 + Phenformin; first compound 0.2 µM) | relative viability (PAC-1 + Phenformin; first compound 2 µM) | relative viability (PAC-1 + Trametinib; first compound 0.02 µM) | relative viability (PAC-1 + Trametinib; first compound 0.06325 µM) | relative viability (PAC-1 + Trametinib; first compound 0.2 µM) | relative viability (PAC-1 + Trametinib; first compound 2 µM)
PC-14 | 0.167 | 0.266 | 0.135 | 0.127 | 0.179 | 0.891 | 0.878 | 0.835 | 0.819 | 0.744 | 0.59 | 0.683 | 0.727 | 0.633 | 0.815 | 0.704 | 0.781 | 0.793
RERF-LC-KJ | 1.24 | 1.12 | 1.26 | 1.14 | 1.16 | 0.96 | 0.977 | 1.03 | 1 | 0.851 | 0.414 | 0.392 | 0.407 | 0.427 | 0.901 | 0.91 | 0.791 | 0.79
SK-LU-1 | 0.205 | 0.184 | 0.24 | 0.199 | 0.194 | – | 1.11 | 0.897 | 1.14 | 1.23 | 0.568 | 0.547 | 0.432 | 0.587 | 0.495 | 0.481 | 0.484 | 0.584
SW 1573 | 0.419 | 0.382 | 0.198 | 0.288 | 0.582 | 0.771 | 0.97 | 0.8 | 0.992 | 0.984 | 0.372 | 0.352 | 0.36 | 0.303 | 0.492 | 0.623 | 0.528 | 0.625
UMC-11 | 0.873 | 0.999 | 1.07 | 1.05 | 0.98 | 0.664 | 0.637 | 0.898 | 0.654 | 0.736 | 0.325 | 0.368 | 0.298 | 0.326 | 0.731 | 0.742 | 0.878 | 0.713

Source: the supplement of paper PMC10307832
